The target of data set [1] is T1, recombinant human D2(short) dopamine receptor (Homo sapiens, UniProt P14416).
T1 construct: expressed in transfected cells; host or cells: CHO-D2S cells (per Hayes et al. 1992)
The data set is described as follows: Dopamine D2S receptor binding assay ([3H]spiperone, CHO cell membranes). As to conditions: human D2S receptors in CHO cells, 0.2 nM [3H]spiperone, mean ± SEM; read-out: Affinity Ki (D2). The method, then: (§1) Compounds synthesized in Examples A, B, C and D were assayed to test their affinity for dopamine D3 and D2 receptors.
(§2) METHODS: Dopamine D2S and D3 Receptor Binding Assays
CHO-D2S cells, expressing the recombinant human D2(short) dopamine receptor gene, (Hayes, G. et al., J. Mol. Endocrinol. 1992, 6, 920-926) were grown in Dulbecco's modified Eagle's medium/nutrient mixture F12 1:1 mixture supplemented with 2 mM glutamine, 10% fetal bovine serum, and 10 μl·ml^−1 penicillin/streptomycin in an atmosphere of 5% CO2 at 37° C. (Gibco™, Karlsruhe, Germany).
(§3) Human D2S- and D3 receptors expressing cell lines were grown to confluence. The medium was removed, and the cells were washed with 10 ml PBS buffer (140 mM NaCl, 3 mM KCl, 1.5 mM KH2PO4, 8 mM Na2HPO4, pH 7.4) at 4° C. After removing the wash buffer, the cells were scraped from the flasks into 15 ml of ice-cold media, and centrifuged at 3,000 rpm for 10 minutes at 4° C. After centrifugation the medium was removed and the […] resuspended in ice-cold Tris-HCl buffer containing 5 mM MgCl2, pH 7.4 and disrupted with a Polytron and centrifuged at 20,000 rpm, for 30 minutes at 4° C. The pellet was resuspended by sonication in ice-cold Tris-HCl buffer (containing 5 mM MgCl2, pH 7.4), membrane aliquots were stored at −70° C. Determination of membrane protein was carried out by the method of Bradford (Bradford, M. M. Anal Biochem 1976, 72, 248-54).
(§4) Cell membranes containing human D2S and D3 receptors from CHO cells were thawed, rehomogenized with sonication at 4° C. in Tris-HCl, pH 7.4 containing 120 mM NaCl, 5 mM KCl, 2 mM CaCl2 and 1 mM MgCl2 (incubation buffer), and incubated with 0.2 nM [^3H]spiperone (106 Ci·mmol^−1, Amersham Biosciences, Freiburg, Germany), and drug diluted in incubation buffer. Non-specific binding was determined in the presence of 10 μM BP 897 ((Wermuth, C. G. et al. in Chem. Abstr. (Eur. Pat. 0779284, 1997)). Incubations were run at 25° C. for 120 min, and terminated by rapid filtration through PerkinElmer GF/B glass fibre filters (PerkinElmer Life Sciences, Rodgau, Germany) coated in 0.3% polyethylenimine (Sigma-Aldrich, Taufkirchen, Germany) using an Inotech cell harvester (Inotech AG, Dottikon, Switzerland). Unbound radioligand was removed with four washes of 1 ml of ice-cold 50 mM Tris-HCl buffer, pH 7.4, containing 120 mM NaCl. The filters were soaked in 9 ml Beta plate scint scintillator and counted using a PerkinElmer MicroBeta®Trilux scintillation counter (PerkinElmer Life Sciences). Competition binding data were analyzed by the software GraphPad Prism™ (2000, version 3.02, San Diego, Calif., USA), using non-linear least squares fit. For detailed screening the compounds have been tested at seven concentrations in triplicate carrying out three to five separate binding experiments for human dopamine D2S and for human dopamine D3 receptors and expressed as mean±standard error of the mean (SEM). Ki values were calculated from the IC50 values according to Cheng-Prusoff equation (Cheng, Y. C., Prusoff, W. H. Biochem. Pharmacol. 1973, 22, 3099-3108.).

Data set [2] concerns the target T2, human dopamine D3 receptors (Homo sapiens, UniProt P35462).
T2 construct: expressed in transfected cells
The data set is described as follows: Dopamine D3 receptor binding assay ([3H]spiperone, CHO cell membranes). As to conditions: for Ki: human D3 receptors in CHO cells, 0.2 nM [3H]spiperone, mean ± SEM, read-out: Affinity Ki (D3); for Selectivity Ki(D2)/Ki(D3): ratio of Ki(D2) to Ki(D3). The method, then: as §1, §2
Human D3 receptors stably expressed in CHO cells were used as described by Sokoloff et al. (Sokoloff, P. et al., Eur. J. Pharmacol. 1992, 225, 331-337). The cell line was cultured in Dulbecco's modified Eagle's medium supplemented with 2 mM glutamine, and 10% dialyzed fetal bovine serum, and were grown in an atmosphere of 5% CO2 at 37° C. (Gibco™).
as §3, §4

Structures are written as SMILES. Counter-ions that a name gives are not always drawn.

This is an account of results in patent US8389555B2, “Medicaments” (Motac Neuroscience Limited, priority 2007, dated 2013).

T1 sequence (P14416 1-414 isoform P14416-2): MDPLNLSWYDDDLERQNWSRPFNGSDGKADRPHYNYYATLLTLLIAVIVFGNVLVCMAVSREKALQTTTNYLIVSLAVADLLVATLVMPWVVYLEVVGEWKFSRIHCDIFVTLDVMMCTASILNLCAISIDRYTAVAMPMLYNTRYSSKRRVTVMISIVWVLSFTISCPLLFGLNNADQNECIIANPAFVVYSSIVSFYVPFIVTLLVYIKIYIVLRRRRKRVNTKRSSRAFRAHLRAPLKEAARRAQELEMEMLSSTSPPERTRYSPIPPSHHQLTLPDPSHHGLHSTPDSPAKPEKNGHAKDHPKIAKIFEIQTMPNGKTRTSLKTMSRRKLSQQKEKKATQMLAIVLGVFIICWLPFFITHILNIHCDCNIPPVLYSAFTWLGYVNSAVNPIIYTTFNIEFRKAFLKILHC
T2 sequence (P35462 whole entry): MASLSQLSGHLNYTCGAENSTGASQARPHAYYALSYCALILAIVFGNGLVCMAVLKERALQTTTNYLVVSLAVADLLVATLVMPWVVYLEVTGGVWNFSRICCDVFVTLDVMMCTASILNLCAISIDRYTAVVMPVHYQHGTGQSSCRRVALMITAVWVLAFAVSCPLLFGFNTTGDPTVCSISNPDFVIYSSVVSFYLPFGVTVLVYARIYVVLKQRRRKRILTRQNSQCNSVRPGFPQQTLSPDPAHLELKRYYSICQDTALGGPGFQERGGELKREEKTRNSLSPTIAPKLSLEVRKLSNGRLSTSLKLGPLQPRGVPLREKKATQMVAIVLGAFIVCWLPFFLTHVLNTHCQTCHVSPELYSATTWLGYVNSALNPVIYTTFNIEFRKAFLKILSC

Compound `CCCN(Cc1ccc(C(=O)N(CCC)C2CCc3ncsc3C2)cc1)C1CCc2ncsc2C1` (centres unmarked) [Compound 42, N-Propyl-4-{[propyl-(4,5,6,7-tetrahydrobenzothiazol-6-yl)amino]methyl}-N-(4,5,6,7-tetrahydrobenzothiazol-6-yl)benzamide] registered a melting point of 85 °C. The inhibitory constant (Ki) in data set [1] is 16700 ± 3380 nM. Further, in data set [2], the Ki came out at 631 ± 388 nM and the “Selectivity Ki(D2)/Ki(D3)” value is given as 26.
On to `CCCN(Cc1ccc(C(=O)N2CCN(c3ccccc3)CC2)cc1)C1CCc2ncsc2C1` (centres unmarked) [Compound 43, (4-Phenylpiperazin-1-yl)-(4-{[propyl-(4,5,6,7-tetrahydrobenzothiazol-6-yl)amino]methyl}phenyl)methanone], for which the melting point came out at 70 °C. For the same compound, the Ki in data set [1] is 1440 ± 273 nM. In data set [2], the Ki was found to be 29.4 ± 7.5 nM and the “Selectivity Ki(D2)/Ki(D3)” value was 49.
`CCCN(CCCCNC(=O)N1CCN(c2ccccc2)CC1)C1CCc2ncsc2C1` (centres unmarked) (as salt: salt) [Compound 61, 4-Phenylpiperazine-1-carboxylic acid {4-[propyl-(4,5,6,7-tetrahydrobenzothiazol-6-yl)amino]butyl}amide] had a melting point of 120 °C.
In turn, `CCCN(CCN1CCN(c2cccc(Cl)c2Cl)CC1)C1CCc2ncsc2C1` (centres unmarked) [Compound 35, {2-[4-(2,3 -Dichloro-phenyl)-piperazin-1-yl]-ethyl}-propyl-(4,5,6,7-tetrahydro-benzothiazol-6-yl)-amine] showed a melting point of 103.5 °C. The Ki in data set [1] worked out at 61.3 ± 19.1 nM. In data set [2], the Ki stood at 21.7 ± 10.6 nM and the “Selectivity Ki(D2)/Ki(D3)” value is on record as 2.
`CCN(CCCCNC(=O)c1ccc2ncsc2c1)C1CCc2ncsc2C1` (centres unmarked) (as salt: salt) [Compound 14, Benzothiazole-6-carboxylic acid {4-[ethyl-(4,5,6,7-tetrahydro-benzothiazol-6-yl)-amino]-butyl}-amide] yielded a melting point of 106.5 °C.
`CCCN(CCOc1ccccc1)C1CCc2ncsc2C1` (centres unmarked) (as salt: salt) [Compound 69, N-(2-Phenoxyethyl)-N-propyl-4,5,6,7-tetrahydrobenzothiazol-6-amine] displayed a melting point of 136 °C.
In the case of `CCCN(CCCCC(=O)NC12CC3CC(CC(C3)C1)C2)C1CCc2ncsc2C1` (centres unmarked) (as salt: salt) [Compound 68, N-Adamantanyl-5-(propyl-(4,5,6,7-tetrahydrobenzothiazol-6-yl)amino)pentanamide], the melting point was 145 °C.
`CCCN(CCCCC(=O)NC1Cc2ccccc2C1)C1CCc2ncsc2C1` (centres unmarked) (as salt: salt) [Compound 67, N-(2,3-dihydro-1H-inden-2-yl)-5-(propyl-(4,5,6,7-tetrahydrobenzothiazol-6-yl)amino)pentanamide] gave a melting point of 60 °C.
`CCCN(CCCCNC(=O)N1CC=C(c2ccccc2)CC1)C1CCc2ncsc2C1` (centres unmarked) (as salt: salt) [Compound 62, 4-Phenyl-3,6-dihydro-2H-pyridine-1-carboxylic acid {4-[propyl-(4,5,6,7-tetrahydrobenzothiazol-6-yl)amino]butyl}amide] gave a melting point of 115 °C.
Take `CCN(CCCN1CCN(c2ccccc2OC)CC1)C1CCc2ncsc2C1` (centres unmarked) (as salt: salt) [Compound 29, Ethyl-{3-[4-(2-methoxy-phenyl)-piperazin-1-yl]-propyl}-(4,5,6,7-tetrahydro-benzothiazol-6-yl)-amine]: the melting point was determined as 64 °C.
As for `CCCN(CCCCNC(=O)c1ccccc1)C1CCc2ncsc2C1` (centres unmarked) (as salt: salt) [Compound 1, N-{4-[Propyl-(4,5,6,7-tetrahydro-benzothiazol-6-yl)-amino]-butyl}-benzamide], the melting point came to 152 °C.
On the same count and under the same terms, for `CCCN(CCCCNC(=O)NC1Cc2ccccc2C1)C1CCc2ncsc2C1` (centres unmarked) (as salt: salt) [Compound 60, 1-Indan-2-yl-3-{4-[propyl-(4,5,6,7-tetrahydrobenzothiazol-6-yl)amino]butyl}urea] the value was 93 °C.
On the same count and under the same terms, for `CCN(CCN1CCc2ccccc2C1)C1CCc2ncsc2C1` (centres unmarked) (as salt: salt) [Compound 31, [2-(3,4-Dihydro-1H-isoquinolin-2-yl)-ethyl]-ethyl-(4,5,6,7-tetrahydro-benzothiazol-6-yl)-amine] the value was 193 °C; for `CCCN(CCCCNC(=O)N1CCCCC1)C1CCc2ncsc2C1` (centres unmarked) (as salt: salt) [Compound 21, Piperidine-1-carboxylic acid {4-[propyl-(4,5,6,7-tetrahydro-benzothiazol-6-yl)-amino]-butyl}-amide], 71 °C; for `CCN(CCCCNC(=O)c1cc2ccccc2s1)C1CCc2ncsc2C1` (centres unmarked) (as salt: salt) [Compound 12, Benzo[b]thiophene-2-carboxylic acid {4-[ethyl-(4,5,6,7-tetrahydro-benzothiazol-6-yl)-amino]-butyl}-amide], 103 °C.
Regarding `CN(CCCCNC(=O)c1cc2ccccc2s1)C1CCc2ncsc2C1` (centres unmarked) (as salt: salt) [Compound 11, Benzo[b]thiophene-2-carboxylic acid {4-[methyl-(4,5,6,7-tetrahydro-benzothiazol-6-yl)-amino]-butyl}-amide], the melting point turned out to be 105 °C.
Consider `CCN(CCCCNC(=O)c1ccc2ccccc2c1)C1CCc2ncsc2C1` (centres unmarked) (as salt: salt) [Compound 4, Naphthalene-2-carboxylic acid {4-[ethyl-(4,5,6,7-tetrahydro-benzothiazol-6-yl)-amino]-butyl}-amide], for which the melting point was found to be 120 °C.
On the same count and under the same terms, to `CCCN(CCCCNC(=O)C1CCc2ccccc2C1)C1CCc2ncsc2C1` (centres unmarked) (as salt: salt) [Compound 23, 1,2,3,4-Tetrahydro-naphthalene-2-carboxylic acid {4-[propyl-(4,5,6,7-tetrahydro-benzothiazol-6-yl)-amino]-butyl}-amide] belongs 138 °C.
The compound `CCCN(CCCCN1CCN(c2cccc(Cl)c2Cl)CC1)C1CCc2ncsc2C1` (centres unmarked) (as salt: salt) [Compound 37, {4-[4-(2,3-Dichloro-phenyl)-piperazin-1-yl]-butyl}-propyl-(4,5,6,7-tetrahydro-benzothiazol-6-yl)-amine] displayed a melting point of 150 °C.
`CCN(CCN1CCN(c2ccccc2OC)CC1)C1CCc2ncsc2C1` (centres unmarked) (as salt: salt) [Compound 28] came in with a melting point of 108 °C.
As to `CCCN(CCCN1CCN(c2cccc(Cl)c2Cl)CC1)C1CCc2ncsc2C1` (centres unmarked) (as salt: salt) [Compound 36, {3-[4-(2,3-Dichloro-phenyl)-piperazin-1-yl]-propyl}-propyl-(4,5,6,7-tetrahydro-benzothiazol-6-yl)-amine], the melting point amounted to 110 °C.
Still for that read-out and setting: to `CCCN(CCCCC(=O)N1CCN(c2ccccc2)CC1)C1CCc2ncsc2C1` (centres unmarked) (as salt: salt) [Compound 66, 1-(4-Phenylpiperazin-1-yl)-5-(propyl-(4,5,6,7-tetrahydrobenzothiazol-6-yl)amino)pentan-1-one] belongs 75 °C; to `CCN(CCCCN1CCN(c2ccccc2OC)CC1)C1CCc2ncsc2C1` (centres unmarked) (as salt: salt) [Compound 30, Ethyl-{4-[4-(2-methoxy-phenyl)-piperazin-1-yl]-butyl}-(4,5,6,7-tetrahydro-benzothiazol-6-yl)-amine], 164 °C.

Broadly, the Ki is the dissociation constant of the complex between target and ligand, obtained from inhibition or displacement. The term melting point denotes the temperature of the solid-liquid transition.
